From patent publication US4649204A, “Dialkanolamine derivatives” (McNeilab, Inc., priority 1985, dated 1987)
Counter-ions that a name gives are not always drawn. Like-named read-outs stand apart in the source and are kept apart here.

Tested on: decrease in exploratory activity and ptosis induced with tetrabenazine in mice
Experiment: tetrabenazine (TBZ) antagonism test: antagonism of the decrease in exploratory activity and ptosis induced by tetrabenazine in mice (antidepressant activity)
Type: in vivo
Details: test compound 30 minutes prior to 32 mg/kg i.p. tetrabenazine; for ED50: Mus musculus, ip
Protocol: The antidepressant activity was determined using the "classical" tetrabenazine (TBZ) antagonism test. […] J. H. Nodine and J. H. Moyer (Lea and Febiger, Philadelphia) p.
Thirty minutes post tetrabenazine, the mice are tested for the presence of normal exploratory activity and ptosis. […] Three to five dosage levels, 10 mice per dosage level, are used per compound.

[1] = first figure of EA/Pt, read-out: TBZ ED50, EA (exploratory activity)
[2] = second figure of EA/Pt, read-out: TBZ ED50, Pt (ptosis)

Compound	ED50 [1]	ED50 [2]	TBZ ED50, EA (exploratory activity) (i.p., first figure of EA/Pt)	TBZ ED50, Pt (ptosis) (i.p., second figure of EA/Pt)
OCCN(CCO)CC(c1ccccc1)c1ccccc1 [Example I, 2,2'-[(2,2-Diphenylethyl)imino]bis[ethanol]Hydrochloride]	15 mg/kg	1.5 mg/kg		
CCC(C(c1ccccc1)c1ccccc1)N(CCO)CCO (stereo not drawn) [Example IV, 2,2'-[(1,1-Diphenyl-2-butyl)imino]bis[ethanol]Fumarate]	23 mg/kg	19 mg/kg		
CC(C(c1ccccc1)c1ccccc1)N(CCO)CCO (stereo not drawn) [Example V, 2,2'-[(1,1-Diphenyl-2-propyl)imino]bis[ethanol]Fumarate]	13 mg/kg	8 mg/kg		
OCCN(CCO)CC(c1ccccc1)c1cccs1 (stereo not drawn) [Example VI, 2,2'-{[2-Phenyl]-2-[(2-thienyl)ethyl]imino}bis{ethanol}.HI]	~60 mg/kg	~60 mg/kg		
OCCN(CCO)CC(c1ccc(Cl)cc1)c1ccc(Cl)cc1 [Example VII, 2,2'-{[2,2-Bis(4-chlorophenyl)ethyl]imino}bis{ethanol}]	~60 mg/kg	~60 mg/kg		
OCCN(CCO)CC(F)(c1ccccc1)c1ccccc1 [Example VIII, 2,2'-[(2-Fluoro-2,2-diphenylethyl)imino]-bis[ethanol]Dihexamate]	40 mg/kg	12 mg/kg		
CC(CN(CCO)CCO)(c1ccccc1)c1ccccc1 [II, 2,2'-[(2,2-Diphenylpropyl)imino]bis[ethanol]Hydrochloride]	28 mg/kg	35 mg/kg		
CC(O)CN(CC(C)O)CC(c1ccccc1)c1ccccc1.Cl (stereo not drawn) [III, 1,1'-[(2,2-Diphenylethyl)imino]bis[2-propanol].HCl]			11 mg/kg	6 mg/kg
O[C@H]1CN(CC(c2ccccc2)c2ccccc2)C[C@@H]1O [IX, 1-(2,2-Diphenylethyl)pyrrolidine-3,4-diol Hemifumarate]	35 mg/kg	6 mg/kg		
